US20260297081A1, “COMPOUNDS AND METHODS OF TREATING CANCERS” (Cullgen Inc., priority 2023, published 2026)

Biological target: CDK4 (Homo sapiens, UniProt P11802+Q16531)
Test: CDK4 percentage degradation in Calu-1 cells (Table 6)
Type: cell-based
Design: Cells that express cyclin D1-3 and CDK4/6 proteins were treated with heterobifunctional compounds; endogenous in cells; host or cells: Calu-1
Details: 16 hours; for inhibition at 0.04 µM: 40 nM; for inhibition at 0.2 µM: 200 nM
Method in brief: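 Calu-1 cells exposed to heterobifunctional compounds at 40 nM or 200 nM for 16 h. Cyclin D1 and CDK4 levels measured by Western blot of RIPA lysates (BCA-normalised loading), bands quantified by densitometry and expressed as percentage degradation.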

Sequence of CDK4 (P11802 2-303 limits assumed): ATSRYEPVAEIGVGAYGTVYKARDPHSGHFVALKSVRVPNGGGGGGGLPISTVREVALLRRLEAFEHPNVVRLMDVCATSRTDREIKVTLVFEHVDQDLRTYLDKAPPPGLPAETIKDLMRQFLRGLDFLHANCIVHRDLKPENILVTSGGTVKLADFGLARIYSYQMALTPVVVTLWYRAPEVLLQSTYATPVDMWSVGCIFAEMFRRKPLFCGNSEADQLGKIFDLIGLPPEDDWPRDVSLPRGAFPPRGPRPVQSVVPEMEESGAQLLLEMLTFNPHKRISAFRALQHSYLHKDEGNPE
Sequence of CDK4 (P24385 whole entry partner): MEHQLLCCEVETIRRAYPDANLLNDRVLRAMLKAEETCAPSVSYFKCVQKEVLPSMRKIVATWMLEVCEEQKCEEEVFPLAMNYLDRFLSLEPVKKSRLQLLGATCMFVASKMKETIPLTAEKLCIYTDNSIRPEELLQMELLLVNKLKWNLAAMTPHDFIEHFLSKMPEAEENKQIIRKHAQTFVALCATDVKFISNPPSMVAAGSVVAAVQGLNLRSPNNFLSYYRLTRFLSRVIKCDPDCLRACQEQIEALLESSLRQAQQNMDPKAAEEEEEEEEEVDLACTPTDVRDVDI
Sequence of CDK4 (Q16531 2-1140 limits assumed): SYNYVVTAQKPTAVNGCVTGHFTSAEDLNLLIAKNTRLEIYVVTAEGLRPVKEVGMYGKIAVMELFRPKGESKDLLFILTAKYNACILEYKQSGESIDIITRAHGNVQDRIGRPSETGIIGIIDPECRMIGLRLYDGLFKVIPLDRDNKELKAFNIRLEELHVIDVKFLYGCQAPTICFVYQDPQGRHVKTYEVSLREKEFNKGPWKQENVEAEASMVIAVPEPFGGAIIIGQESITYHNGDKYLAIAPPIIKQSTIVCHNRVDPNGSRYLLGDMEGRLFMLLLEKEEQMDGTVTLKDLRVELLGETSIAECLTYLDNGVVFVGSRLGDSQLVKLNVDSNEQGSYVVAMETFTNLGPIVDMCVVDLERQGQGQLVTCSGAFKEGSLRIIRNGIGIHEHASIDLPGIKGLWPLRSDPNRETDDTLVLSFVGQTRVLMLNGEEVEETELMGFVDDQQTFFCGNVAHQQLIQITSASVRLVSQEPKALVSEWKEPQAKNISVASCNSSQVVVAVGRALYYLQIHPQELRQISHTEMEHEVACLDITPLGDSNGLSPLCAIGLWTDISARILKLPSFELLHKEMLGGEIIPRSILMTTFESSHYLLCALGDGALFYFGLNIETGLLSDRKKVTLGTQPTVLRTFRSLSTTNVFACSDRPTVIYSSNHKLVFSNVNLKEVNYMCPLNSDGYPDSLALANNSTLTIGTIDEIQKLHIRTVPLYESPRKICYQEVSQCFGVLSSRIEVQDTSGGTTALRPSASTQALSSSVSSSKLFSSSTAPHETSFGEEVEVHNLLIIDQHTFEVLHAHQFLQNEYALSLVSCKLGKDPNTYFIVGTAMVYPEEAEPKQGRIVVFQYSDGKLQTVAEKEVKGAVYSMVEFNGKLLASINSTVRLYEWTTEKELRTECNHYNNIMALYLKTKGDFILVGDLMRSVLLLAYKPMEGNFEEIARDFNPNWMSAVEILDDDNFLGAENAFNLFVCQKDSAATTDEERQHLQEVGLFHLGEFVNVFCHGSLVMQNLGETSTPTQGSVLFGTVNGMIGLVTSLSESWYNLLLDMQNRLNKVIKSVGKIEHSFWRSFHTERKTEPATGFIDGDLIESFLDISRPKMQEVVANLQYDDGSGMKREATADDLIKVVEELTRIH

SMILES | inhibition at 0.04 µM | inhibition at 0.2 µM
CNc1ccc(C(=O)Nc2ccc(N(C)C)nn2)c(NC[C@H]2CC[C@@H](NC(=O)CN3CCN(c4ccc(Nc5ncc6c(C)c(C(C)=O)c(=O)n(C7CCCC7)c6n5)nc4)CC3)CC2)n1 [CPD-193, 2-(((cis-4-(2-(4-(6-((6-acetyl-8-cyclopentyl-5-methyl-7-oxo-7,8-dihydropyrido[2,3-d]pyrimidin-2-yl)amino)pyridin-3-yl)piperazin-1-yl)acetamido)cyclohexyl)methyl)amino)-N-(6-(dimethylamino)pyridazin-3-yl)-6-(methylamino)nicotinamide] | 50 to 80% | 50 to 80%
CNc1ccc(C(=O)Nc2ccc(N(C)C)nn2)c(NC(=O)CN2CCN(c3ccc(Nc4ncc5c(C)c(C(C)=O)c(=O)n(C6CCCC6)c5n4)nc3)CC2)n1 [CPD-194, 2-(2-(4-(6-((6-acetyl-8-cyclopentyl-5-methyl-7-oxo-7,8-dihydropyrido[2,3-d]pyrimidin-2-yl)amino)pyridin-3-yl)piperazin-1-yl)acetamido)-N-(6-(dimethylamino)pyridazin-3-yl)-6-(methylamino)nicotinamide] | < 30% | < 30%
CNc1ccc(C(=O)Nc2cn(C)c(C(C)C)n2)c(NC2CC3(CC(NC(=O)CN4CCN(c5ccc(Nc6ncc7c(C)c(C(C)=O)c(=O)n(C8CCCC8)c7n6)nc5)CC4)C3)C2)n1 (centres unmarked) [CPD-195, 2-((6-(2-(4-(6-((6-acetyl-8-cyclopentyl-5-methyl-7-oxo-7,8-dihydropyrido[2,3-d]pyrimidin-2-yl)amino)pyridin-3-yl)piperazin-1-yl)acetamido)spiro[3.3]heptan-2-yl)amino)-N-(2-isopropyl-1-methyl-1H-imidazol-4-yl)-6-(methylamino)nicotinamide] | < 30% | 50 to 80%
CNc1ccc(C(=O)Nc2cccc(C)n2)c(NC2CC(NC(=O)CN3CCN(c4ccc(Nc5ncc6c(C)c(C(C)=O)c(=O)n(C7CCCC7)c6n5)nc4)CC3)C2)n1 (centres unmarked) [CPD-196, 2-((3-(2-(4-(6-((6-acetyl-8-cyclopentyl-5-methyl-7-oxo-7,8-dihydropyrido[2,3-d]pyrimidin-2-yl)amino)pyridin-3-yl)piperazin-1-yl)acetamido)cyclobutyl)amino)-6-(methylamino)-N-(6-methylpyridin-2-yl)nicotinamide] | < 30% | 30 to 50%
CNc1ccc(C(=O)Nc2cc(C)n(C)n2)c(NC2CC(NC(=O)CN3CCN(c4ccc(Nc5ncc6c(C)c(C(C)=O)c(=O)n(C7CCCC7)c6n5)nc4)CC3)C2)n1 (centres unmarked) [CPD-197, 2-((3-(2-(4-(6-((6-acetyl-8-cyclopentyl-5-methyl-7-oxo-7,8-dihydropyrido[2,3-d]pyrimidin-2-yl)amino)pyridin-3-yl)piperazin-1-yl)acetamido)cyclobutyl)amino)-N-(1,5-dimethyl-1H-pyrazol-3-yl)-6-(methylamino)nicotinamide] | < 30% | 30 to 50%
CNc1ccc(C(=O)Nc2cc(C)on2)c(NC2CC(NC(=O)CN3CCN(c4ccc(Nc5ncc6c(C)c(C(C)=O)c(=O)n(C7CCCC7)c6n5)nc4)CC3)C2)n1 (centres unmarked) [CPD-198, 2-((3-(2-(4-(6-((6-acetyl-8-cyclopentyl-5-methyl-7-oxo-7,8-dihydropyrido[2,3-d]pyrimidin-2-yl)amino)pyridin-3-yl)piperazin-1-yl)acetamido)cyclobutyl)amino)-6-(methylamino)-N-(5-methylisoxazol-3-yl)nicotinamide] | < 30% | 30 to 50%
CNc1ccc(C(=O)Nc2ccc(N(C)C)nn2)c(NC2CCN(C(=O)CN3CCN(c4ccc(Nc5ncc6c(C)c(C(C)=O)c(=O)n(C7CCCC7)c6n5)nc4)CC3)C2)n1 (centres unmarked) [CPD-201, 2-((1-(2-(4-(6-((6-acetyl-8-cyclopentyl-5-methyl-7-oxo-7,8-dihydropyrido[2,3-d]pyrimidin-2-yl)amino)pyridin-3-yl)piperazin-1-yl)acetyl)pyrrolidin-3-yl)amino)-N-(6-(dimethylamino)pyridazin-3-yl)-6-(methylamino)nicotinamide] | 30 to 50% | 50 to 80%

Results, then the compound that gave them:

inhibition at 0.04 µM | inhibition at 0.2 µM | SMILES
< 30% | 50 to 80% | CNc1ccc(C(=O)Nc2ccc(N(C)C)nn2)c(NC[C@H]2CC[C@H](CCC(=O)N3CCN(c4ccc(Nc5ncc6c(C)c(C(C)=O)c(=O)n(C7CCCC7)c6n5)nc4)CC3)CC2)n1 [CPD-204, 2-(((trans-4-(3-(4-(6-((6-acetyl-8-cyclopentyl-S-methyl-7-oxo-7,8-dihydropyrido[2,3-d]pyrimidin-2-yl)amino)pyridin-3-yl)piperazin-1-yl)-3-oxopropyl)cyclohexyl)methyl)amino)-N-(6-(dimethylamino)pyridazin-3-yl)-6-(methylamino)nicotinamide]
30 to 50% | 50 to 80% | CC(=O)c1c(C)c2cnc(Nc3ccc(N4CCN(CC(=O)NC5CC6(C5)CC(Nc5nc(C)ccc5C(=O)Nc5cn(C)c(C7CC7)n5)C6)CC4)cn3)nc2n(C2CCCC2)c1=O (centres unmarked) [CPD-207, 2-((6-(2-(4-(6-((6-acetyl-8-cyclopentyl-5-methyl-7-oxo-7,8-dihydropyrido[2,3-d]pyrimidin-2-yl)amino)pyridin-3-yl)piperazin-1-yl)acetamido)spiro[3.3]heptan-2-yl)amino)-N-(2-cyclopropyl-1-methyl-1H-imidazol-4-yl)-6-methylnicotinamide]
30 to 50% | 50 to 80% | CCc1ccc(C(=O)Nc2cc(C)n(C)n2)c(NC2CC(CNC(=O)CN3CCN(c4ccc(Nc5ncc6c(C)c(C(C)=O)c(=O)n(C7CCCC7)c6n5)nc4)CC3)C2)n1 (centres unmarked) [CPD-210, 2-((3-((2-(4-(6-((6-acetyl-8-cyclopentyl-5-methyl-7-oxo-7,8-dihydropyrido[2,3-d]pyrimidin-2-yl)amino)pyridin-3-yl)piperazin-1-yl)acetamido)methyl)cyclobutyl)amino)-N-(1,5-dimethyl-1H-pyrazol-3-yl)-6-ethylnicotinamide]
30 to 50% | 30 to 50% | CNc1ccc(C(=O)Nc2ccc(N(C)C)nn2)c(NC2CN(C(=O)CCCN3CCN(c4ccc(Nc5ncc6c(C)c(C(C)=O)c(=O)n(C7CCCC7)c6n5)nc4)CC3)C2)n1 [CPD-211, 2-((1-(4-(4-(6-((6-acetyl-8-cyclopentyl-5-methyl-7-oxo-7,8-dihydropyrido[2,3-d]pyrimidin-2-yl)amino)pyridin-3-yl)piperazin-1-yl)butanoyl)azetidin-3-yl)amino)-N-(6-(dimethylamino)pyridazin-3-yl)-6-(methylamino)nicotinamide]
30 to 50% | 50 to 80% | CC(=O)c1c(C)c2cnc(Nc3ccc(N4CCN(CC(=O)NCC5CC(Nc6nc(C(C)C)ccc6C(=O)Nc6cc(C)n(C)n6)C5)CC4)cn3)nc2n(C2CCCC2)c1=O (centres unmarked) [CPD-212, 2-((3-((2-(4-(6-((6-acetyl-8-cyclopentyl-5-methyl-7-oxo-7,8-dihydropyrido[2,3-d]pyrimidin-2-yl)amino)pyridin-3-yl)piperazin-1-yl)acetamido)methyl)cyclobutyl)amino)-N-(1,5-dimethyl-1H-pyrazol-3-yl)-6-isopropylnicotinamide]
30 to 50% | 50 to 80% | CC(=O)c1c(C)c2cnc(Nc3ccc(N4CCN(CC(=O)NCC5CC(Nc6nc(C7CC7)ccc6C(=O)Nc6cc(C)n(C)n6)C5)CC4)cn3)nc2n(C2CCCC2)c1=O (centres unmarked) [CPD-213, 2-((3-((2-(4-(6-((6-acetyl-8-cyclopentyl-5-methyl-7-oxo-7,8-dihydropyrido[2,3-d]pyrimidin-2-yl)amino)pyridin-3-yl)piperazin-1-yl)acetamido)methyl)cyclobutyl)amino)-6-cyclopropyl-N-(1,5-dimethyl-1H-pyrazol-3-yl)nicotinamide]
< 30% | < 30% | CNc1ccc(C(=O)Nc2cc(C3CC3)on2)c(NC2CC3(CC(NC(=O)CN4CCN(c5ccc(Nc6ncc7c(C)c(C(C)=O)c(=O)n(C8CCCC8)c7n6)nc5)CC4)C3)C2)n1 (centres unmarked) [CPD-215, 2-((6-(2-(4-(6-((6-acetyl-8-cyclopentyl-5-methyl-7-oxo-7,8-dihydropyrido[2,3-d]pyrimidin-2-yl)amino)pyridin-3-yl)piperazin-1-yl)acetamido)spiro[3.3]heptan-2-yl)amino)-N-(5-cyclopropylisoxazol-3-yl)-6-(methylamino)nicotinamide]
30 to 50% | 50 to 80% | CNc1ccc(C(=O)Nc2ccc(N(C)C)nn2)c(NC2CC3(C2)CC(OC(C)(C)C(=O)N2CCN(c4ccc(Nc5ncc6c(C)c(C(C)=O)c(=O)n(C7CCCC7)c6n5)nc4)CC2)C3)n1 (centres unmarked) [CPD-216, 2-((6-((1-(4-(6-((6-acetyl-8-cyclopentyl-5-methyl-7-oxo-7,8-dihydropyrido[2,3-d]pyrimidin-2-yl)amino)pyridin-3-yl)piperazin-1-yl)-2-methyl-1-oxopropan-2-yl)oxy)spiro[3.3]heptan-2-yl)amino)-N-(6-(dimethylamino)pyridazin-3-yl)-6-(methylamino)nicotinamide]
30 to 50% | 50 to 80% | CNc1ccc(C(=O)Nc2ccc(OC)c(C)n2)c(NC2CC3(CC(NC(=O)CN4CCN(c5ccc(Nc6ncc7c(C)c(C(C)=O)c(=O)n(C8CCCC8)c7n6)nc5)CC4)C3)C2)n1 (centres unmarked) [CPD-220, 2-((6-(2-(4-(6-((6-acetyl-8-cyclopentyl-5-methyl-7-oxo-7,8-dihydropyrido[2,3-d]pyrimidin-2-yl)amino)pyridin-3-yl)piperazin-1-yl)acetamido)spiro[3.3]heptan-2-yl)amino)-N-(5-methoxy-6-methylpyridin-2-yl)-6-(methylamino)nicotinamide]
